PubChem BioAssay (NCI)
Several values for one entry are separate records, joined by “and”; a condition that tells them apart may be missing. Equal entries are not always repeated.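 All cell lines were grown in 96-well plates and treated with compound for 48 hours. GI50 marks 50% less growth. TGI denotes the concentration required for complete inhibition of growth.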

Columns and labels:
Test in all cases: NCI-60 cell line screen, 48 h
[1] = tested on: U251 CNS
[2] = tested on: HS 578T breast
[3] = tested on: SNB-19 CNS
[4] = tested on: OVCAR-3 ovarian
[5] = tested on: HL-60(TB) leukemia
[6] = tested on: UACC-62 melanoma
[7] = tested on: NCI-H522 lung
[8] = tested on: SK-OV-3 ovarian
[9] = tested on: SF-539 CNS
[10] = tested on: UACC-257 melanoma

Work on `COc1ccc(C2C(c3ccccc3)C(=O)N2c2cc(OC)c(OC)c(OC)c2)cc1I` (configuration not stated) yielded a GI50 [1] of 388 nM, a TGI [1] of over 100 µM and a GI50 [2] of 0.435 µM. The TGI [2] was over 100 µM, the GI50 [3] was 0.59 µM and the TGI [3] was over 100 µM. For the same compound, the GI50 [4] was 280 nM, the TGI [4] was 0.802 µM and the GI50 [5] was 225 nM. It also gave a TGI [5] of 0.533 µM, a GI50 [6] of 0.458 µM and a TGI [6] of over 100 µM. The GI50 [7] was 276 nM, the TGI [7] was 0.887 µM and the GI50 [8] was 0.395 µM. It also gave a TGI [8] of over 100 µM, a GI50 [9] of 234 nM and a TGI [9] of 0.657 µM. It also gave a GI50 [10] of over 100000 nM and a TGI [10] of over 100 µM.
In the case of `COc1ccc2[nH]c(-c3cccc(N(C)C)c3)cc(=O)c2c1`, the GI50 [1] is reported as 463 nM, the TGI [2] is reported as 0.509 µM and the TGI [4] is reported as 0.368 µM. The GI50 [5] was 231 nM, the TGI [5] was 0.592 µM and 0.569 µM and the GI50 [6] was 0.483 µM. For the same compound, the TGI [6] was over 100 µM, the GI50 [7] was 407 nM and the TGI [7] was 0.526 µM and 2.56 µM. The GI50 [8] was 0.573 µM, the TGI [8] was 59.2 µM and the GI50 [9] was 391 nM. The GI50 [10] was 361 nM and the TGI [10] was over 100 µM.
`O=C(O)C(Br)C(Br)c1ccccc1[N+](=O)[O-]` (configuration not stated) gave a TGI [1] of over 100 µM, a TGI [2] of over 100 µM and a TGI [3] of over 100 µM. It also gave a TGI [4] of over 100 µM, a TGI [6] of over 100 µM and a TGI [7] of over 100 µM. For the same compound, the TGI [8] was over 100 µM, the TGI [9] was over 100 µM and the TGI [10] was over 100 µM.
`O=C(O)c1ccc(S(=O)(=O)N=Nc2c(O)[nH]c3ccccc23)cc1` was tested, and the TGI [1] was over 100 µM, the TGI [2] was over 100 µM and the TGI [3] was over 100 µM. It also gave a TGI [4] of over 100 µM, a TGI [5] of over 100 µM and a TGI [6] of over 100 µM. It also gave a TGI [7] of over 100 µM, a TGI [8] of over 100 µM and a TGI [9] of over 100 µM. It also gave a TGI [10] of over 100 µM.
`Cc1ccc2[nH]c(C(=O)NN3C(=O)CSC34CCCC(C)C4)c(-c3ccccc3)c2c1` (configuration not stated) was tested, and the GI50 [1] was 17300 nM, the TGI [1] was 33.6 µM and the GI50 [2] was 28.2 µM. The TGI [2] was 68 µM, the GI50 [3] was 18.6 µM and the TGI [3] was 36.6 µM. For the same compound, the GI50 [4] was 13800 nM, the TGI [4] was 30.3 µM and the GI50 [6] was 13.9 µM. It also gave a TGI [6] of 29.2 µM, a GI50 [7] of 11900 nM and a TGI [7] of 25.6 µM. The GI50 [8] was 21.5 µM, the TGI [8] was 48.3 µM and the GI50 [9] was 21000 nM. For the same compound, the TGI [9] was 39.4 µM, the GI50 [10] was 19200 nM and the TGI [10] was 35 µM.
In the case of `O=C(NCCN1CCOCC1)Nc1ccc(-c2cc3c(Nc4ccc(Oc5cccc(C(F)(F)F)c5)c(Cl)c4)ncnc3s2)cc1`, the GI50 [1] is reported as 769 nM, the TGI [1] is reported as 2.43 µM and the GI50 [2] is reported as 1.16 µM. It also gave a TGI [2] of 3.84 µM, a GI50 [3] of 2.41 µM and a TGI [3] of 8.52 µM. For the same compound, the GI50 [4] was 2340 nM, the TGI [4] was 8.54 µM and the GI50 [5] was 1260 nM. The TGI [5] was 3.37 µM, the GI50 [6] was 1 µM and the TGI [6] was 2.27 µM. For the same compound, the GI50 [7] was 910 nM, the TGI [7] was 2.26 µM and the GI50 [8] was 1.88 µM. The TGI [8] was 7.49 µM, the GI50 [9] was 825 nM and the TGI [9] was 2.01 µM. For the same compound, the GI50 [10] was 927 nM and the TGI [10] was 1.84 µM.
Work on `Cc1ccccc1-n1c(/C=C\c2ccccn2)nc2ccccc2c1=O` yielded a GI50 [1] of 11000 nM, a TGI [1] of 25.8 µM and a GI50 [2] of 15.5 µM. The TGI [2] was over 100 µM, the GI50 [3] was 32.1 µM and the TGI [3] was over 100 µM. It also gave a GI50 [4] of 6750 nM, a TGI [4] of 53.6 µM and a GI50 [5] of 6120 nM. It also gave a TGI [5] of over 100 µM, a GI50 [6] of 14.2 µM and a TGI [6] of 45 µM. The GI50 [7] was 5700 nM, the TGI [7] was 39.1 µM and the GI50 [8] was 35.3 µM. It also gave a TGI [8] of over 100 µM, a GI50 [9] of 18600 nM and a TGI [9] of 55 µM. The GI50 [10] was 31000 nM and the TGI [10] was over 100 µM.
`COc1ccccc1CNC(=O)C1c2ccccc2C(=O)N(CC(C)C)C1c1cccs1` (configuration not stated) showed a GI50 [1] of 23900 nM, a TGI [1] of over 100 µM and a GI50 [2] of 16 µM. It also gave a TGI [2] of 60.1 µM, a GI50 [3] of 28.8 µM and a TGI [3] of over 100 µM. The GI50 [4] was 25700 nM, the TGI [4] was 89.1 µM and the GI50 [5] was 20500 nM. The TGI [5] was 60.9 µM, the GI50 [6] was 14.7 µM and the TGI [6] was 38.6 µM. The GI50 [8] was 36.9 µM, the TGI [8] was over 100 µM and the GI50 [9] was 16900 nM. It also gave a TGI [9] of 33.8 µM.
`CCCCCCNC(=O)Oc1ccc(/C(=C(\C)c2ccccc2)c2ccc(OCCN3CCCCC3)cc2)cc1` gave a GI50 [1] of 1810 nM, a TGI [1] of 3.81 µM and a GI50 [2] of 2.71 µM. For the same compound, the TGI [2] was 13.4 µM, the GI50 [3] was 4.69 µM and the TGI [3] was 18.2 µM. It also gave a GI50 [4] of 1970 nM, a TGI [4] of 4.82 µM and a GI50 [6] of 3.63 µM. The TGI [6] was 12.5 µM, the GI50 [7] was 1910 nM and the TGI [7] was 4.07 µM. The GI50 [8] was 5.05 µM, the TGI [8] was 19.3 µM and the GI50 [9] was 1750 nM. It also gave a TGI [9] of 3.22 µM, a GI50 [10] of 2690 nM and a TGI [10] of 9.16 µM.
`CC(F)(F)c1cc(F)ccc1-c1sc2cc(O)ccc2c1Oc1ccc(/C=C/C(=O)O)cc1` showed a GI50 [1] of 6450 nM, a TGI [1] of 23 µM and a GI50 [2] of 4.89 µM. For the same compound, the TGI [2] was 32.8 µM, the GI50 [3] was 7.28 µM and the TGI [3] was 20.2 µM. The GI50 [4] was 8810 nM, the TGI [4] was 20.9 µM and the GI50 [5] was 4440 nM. The TGI [5] was 23.8 µM, the GI50 [6] was 6.06 µM and the TGI [6] was 22.9 µM. The GI50 [7] was 6230 nM, the TGI [7] was 29 µM and the GI50 [9] was 5950 nM. It also gave a TGI [9] of 21 µM, a GI50 [10] of 14200 nM and a TGI [10] of 57.5 µM.
`CN1CCN(Cc2ccc(NC(=O)c3[nH]ncc3Nc3ncnc4sccc34)cc2)CC1` was tested, and the GI50 [1] was 242 nM, the TGI [1] was over 100 µM and the GI50 [2] was 0.0604 µM. For the same compound, the TGI [2] was 2.93 µM, the GI50 [3] was 0.335 µM and the TGI [3] was over 100 µM. The GI50 [4] was 306 nM, the TGI [4] was 2.54 µM and the GI50 [5] was 334 nM. The TGI [5] was 1.07 µM, the GI50 [6] was 0.915 µM and the TGI [6] was over 100 µM. It also gave a GI50 [9] of 127 nM, a TGI [9] of 1.56 µM and a GI50 [10] of 2120 nM. The TGI [10] was over 100 µM.
`Oc1ccc(/C=N/Nc2nc3ccccc3s2)c(O)c1` was tested, and the GI50 [1] was 1720 nM, the TGI [1] was over 100 µM and the GI50 [2] was 2.91 µM. It also gave a TGI [2] of over 100 µM, a GI50 [3] of 2.8 µM and a TGI [3] of over 100 µM. It also gave a GI50 [4] of 1920 nM, a TGI [4] of 12.8 µM and a GI50 [6] of 1.75 µM. For the same compound, the TGI [6] was 4.82 µM, the GI50 [7] was 1390 nM and the TGI [7] was 6.11 µM. It also gave a GI50 [8] of 2.14 µM, a TGI [8] of 8.93 µM and a GI50 [9] of 1890 nM. For the same compound, the TGI [9] was 9.82 µM, the GI50 [10] was 2790 nM and the TGI [10] was 14.2 µM.
`CCCCN(CCCC)CC(C)(C)C(O)c1ccc(OC)c2ccccc12` (configuration not stated) was tested, and the GI50 [1] was 3470 nM, the TGI [1] was 13.4 µM and the GI50 [2] was 4.55 µM. The TGI [2] was 27 µM, the GI50 [3] was 10.6 µM and the TGI [3] was 28.6 µM. For the same compound, the GI50 [4] was 2840 nM, the TGI [4] was 13.9 µM and the GI50 [5] was 2980 nM. For the same compound, the TGI [5] was 15.8 µM, the GI50 [6] was 4.87 µM and the TGI [6] was 21.3 µM. It also gave a GI50 [7] of 4180 nM, a TGI [7] of 18.5 µM and a GI50 [8] of 5.29 µM. The TGI [8] was 28.7 µM, the GI50 [10] was 6310 nM and the TGI [10] was 23.8 µM.
`COc1cc(OC)c(OC)cc1/C=C1\C=Cc2ccccc21` showed a TGI [1] of over 100 µM, a TGI [2] of 96.2 µM and a TGI [5] of 35.2 µM. It also gave a TGI [7] of 51.2 µM, a TGI [8] of 59.8 µM and a TGI [9] of 35.8 µM. It also gave a TGI [10] of 37.7 µM.
